Experimental data: ChEMBL document CHEMBL1201862, “PubChem BioAssay data set” (2004)
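A five-concentration, 48-hour dose response in 96-well plates underlies each endpoint, interpolated linearly between surrounding concentrations. GI50: concentration for 50% inhibition of growth.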 Activity calls are given as the source filed them. Cut-off read from the data, not from the text of the source: active = GI50 up to about 1.1 µM and inactive = higher.

What was measured:
Assay in all cases: DTP human tumour cell line panel, 48 h
COLO 205 = system: COLO 205
DU-145 = system: DU-145
HOP-62 = system: HOP-62
Hs-578T = system: Hs-578T
K562 = system: K562
M14 = system: M14
MCF7 = system: MCF7
MDA-N = system: MDA-N
NCI-H226 = system: NCI-H226
OVCAR-3 = system: OVCAR-3
OVCAR-5 = system: OVCAR-5
OVCAR-8 = system: OVCAR-8
RPMI-8226 = system: RPMI-8226
SK-OV-3 = system: SK-OV-3
SR = system: SR
BT-549 = system: BT-549
Malme-3M = system: Malme-3M
PC-3 = system: PC-3
SK-MEL-2 = system: SK-MEL-2
SNB-19 = system: SNB-19

SMILES	GI50 (COLO 205)	GI50 (DU-145)	GI50 (HOP-62)	GI50 (Hs-578T)	GI50 (K562)	GI50 (M14)	GI50 (MCF7)	GI50 (MDA-N)	GI50 (NCI-H226)	GI50 (OVCAR-3)	GI50 (OVCAR-5)	GI50 (OVCAR-8)	GI50 (RPMI-8226)	GI50 (SK-OV-3)	GI50 (SR)	GI50 (BT-549)	GI50 (Malme-3M)	GI50 (PC-3)	GI50 (SK-MEL-2)	GI50 (SNB-19)
O=C(CC(C(=O)c1ccsc1)c1ccccc1)c1ccccc1 (configuration not stated)	> 100 µM (inactive)	> 100 µM (inactive)	> 100 µM (inactive)	> 100 µM (inactive)	> 100 µM (inactive)	> 100 µM (inactive)	> 100 µM (inactive)	> 100 µM (inactive)	74.1 µM (inactive)	> 100 µM (inactive)	> 100 µM (inactive)	> 100 µM (inactive)	> 100 µM (inactive)	> 100 µM (inactive)	> 100 µM (inactive)					
C=C(C)C(=O)OC1CC2(C)OC(=CC2=O)C(C)CC2OC(=O)C(=C)C12 (configuration not stated)	1.23 µM (inactive)	4.74 µM (inactive)	19.2 µM (inactive)		0.656 µM (active)	5.48 µM (inactive)	2.78 µM (inactive)	3.01 µM (inactive)	19.1 µM (inactive)	5.15 µM (inactive)	10.4 µM (inactive)	8.41 µM (inactive)	3.3 µM (inactive)	34.9 µM (inactive)	1.63 µM (inactive)	6.25 µM (inactive)	3.44 µM (inactive)	14 µM (inactive)	14.3 µM (inactive)	21.4 µM (inactive)
C[n+]1c(/C=C/c2ccc(/C=N/NC(=O)c3ccc(C(=O)N/N=C/c4ccc(/C=C/c5cn6ccccc6[n+]5C)cc4)cc3)cc2)cn2ccccc21	98.4 µM (inactive)	> 100 µM (inactive)	> 100 µM (inactive)	> 100 µM (inactive)		> 100 µM (inactive)	> 100 µM (inactive)	> 100 µM (inactive)		> 100 µM (inactive)	> 100 µM (inactive)	> 100 µM (inactive)	> 100 µM (inactive)	> 100 µM (inactive)		> 100 µM (inactive)	> 100 µM (inactive)	> 100 µM (inactive)		> 100 µM (inactive)
Oc1ccc(-c2nc3ccc(F)cc3s2)cc1	16.2 µM (inactive)	15.2 µM (inactive)			29.4 µM (inactive)	20.4 µM (inactive)	17.5 µM (inactive)	23.5 µM (inactive)	18.6 µM (inactive)	30.7 µM (inactive)	21.7 µM (inactive)	19.4 µM (inactive)	35.7 µM (inactive)	18.2 µM (inactive)	26.1 µM (inactive)	18.1 µM (inactive)	18.5 µM (inactive)	21.4 µM (inactive)	19.1 µM (inactive)	19.3 µM (inactive)
C=C[C@@H]1C[C@]2(C(=O)OC)Cc3nc4ccccc4nc3CC(C(=O)OC)=C2O1	35.2 µM (inactive)	> 100 µM (inactive)	> 100 µM (inactive)	> 100 µM (inactive)		80.7 µM (inactive)	40.6 µM (inactive)	46.8 µM (inactive)		23 µM (inactive)	> 100 µM (inactive)	> 100 µM (inactive)	34 µM (inactive)	> 100 µM (inactive)		57.1 µM (inactive)	> 100 µM (inactive)	62.4 µM (inactive)	> 100 µM (inactive)	> 100 µM (inactive)
O=C(/C=C/c1ccccc1)CCc1c(O)c2ccccc2oc1=O	89.1 µM (inactive)	> 100 µM (inactive)		> 100 µM (inactive)	49.4 µM (inactive)	> 100 µM (inactive)	60.4 µM (inactive)	71.9 µM (inactive)	> 100 µM (inactive)	49.4 µM (inactive)	> 100 µM (inactive)	> 100 µM (inactive)	32.3 µM (inactive)	> 100 µM (inactive)		32.4 µM (inactive)	> 100 µM (inactive)	43.9 µM (inactive)	71.9 µM (inactive)	> 100 µM (inactive)
Cc1c(C)c(S(=O)(=O)N(CCCCN)OCCCN)c(C)c2c1OC(C)(C)CC2	31.2 µM (inactive)	23.7 µM (inactive)	13.4 µM (inactive)	13.2 µM (inactive)	32.4 µM (inactive)	28.6 µM (inactive)	26.6 µM (inactive)	22.8 µM (inactive)	13.1 µM (inactive)	13.3 µM (inactive)	15.1 µM (inactive)	18.7 µM (inactive)	23.3 µM (inactive)	15.6 µM (inactive)	42.7 µM (inactive)			5.47 µM (inactive)	11.1 µM (inactive)	15.1 µM (inactive)
O=C(CC(=O)Nc1cccc(C(=O)O)c1)Nc1cccc(C(=O)O)c1	> 100 µM (inactive)	> 100 µM (inactive)	> 100 µM (inactive)	> 100 µM (inactive)	> 100 µM (inactive)	> 100 µM (inactive)	> 100 µM (inactive)	> 100 µM (inactive)	> 100 µM (inactive)	> 100 µM (inactive)		> 100 µM (inactive)	> 100 µM (inactive)			> 100 µM (inactive)		> 100 µM (inactive)	> 100 µM (inactive)	> 100 µM (inactive)
